# Patent US20080275136A1, “Use of Glycerol for Improving Cardiac Function” (priority 2005, published 2008)
# Read-outs that look alike come from different tables or passages of the source.
# Key:
# heart = details: cited from earlier work
# type 2 diabetic patients = details: cited from earlier work
# [1] = system: isolated neonatal rat cardiomyocytes; details: cited from earlier work
# perfused rat heart [2] = experiment: Simultaneous oxidation of [3H]-palmitate and [14C]-glycerol in perfused rat heart; details: extracellular glycerol concentration increased; palmitate 0.4 mM
# Procedure: The influence of cardiac energy demand and circulating glycerol concentration on fatty acid metabolism was evaluated in the heart by following the intracellular palmitate fate with [^3H]-palmitate. The experiments were performed using the perfusion conditions described in Example 1, except that a perfusion solution supplemented with palmitate (0.4 mM) was used. To prepare palmitate-enriched solution, 43.5 g of albumin (fraction bovine, Sigma) was dissolved in 350 mL Krebs-Henselheit buffer. Palmitate was then slowly added to this albumin solution and mixed. The albumin-palmitate mixture was dialysed against Krebs-Henselheit solution at +4° C. (three time 12 h dialysis in 10 basal solution volume). For the final preparation of the palmitate-enriched fluid, 93.5 mL of concentrated solution were incorporated in 2 L of Krebs-Henselheit Radioactive solution was prepared in the same conditions with addition of [^3H]-palmitate (1 μCi/mL). The perfusion solution also contained [^14C]-glycerol to follow glycerol oxidation in the same heart. The oxidations of palmitate and glycerol were evaluated simultaneously using as tracers [^3H]-palmitate and [^14C]-GLYCEROL, respectively. At the end of the perfusion, the oxidized substrates were determined by measuring the radioactivity rejected by the heart in the perfusion medium as [^3H]2O and [^14C]O2, respectively.
# perfused rat heart [3] = experiment: Glycerol uptake in perfused rat heart (total radioactivity of the homogenate)
# Procedure: (§1) The investigations were carried out on a perfused rat heart model (LOPASCHUK and BARR., 1997, aforementioned, SENTEX et al, 2001, aforementioned, FOLCH et al., J Biol Chem, 226, 497-509, 1957). Male Wistar rats (280-330 g) were anaesthetised with sodium pentobarbital (60 mg per kg, i.p.) and heparin was intravenously injected (500 IU/kg). After 1 min, the hearts were excised and placed in a cold (4° C.) perfusion buffer awaiting contractions ceased. The heart was then immediately cannulated through the aorta and perfused according to the Langendorff method at a constant perfusion pressure of 80 cm of water (8 kPa). The perfusion fluid consisted of a modified Krebs-Henseleit bicarbonate buffer (mM concentrations: NaCl 118, NaHCO3 25, MgSO4 1.2, KH2PO4 1.2, KCl 4.7, glucose 5.5 and CaCl2 2.0). […]
# (§2) Before use, all solutions were filtered through a 0.8 μm filter (Millipore, Saint Quentin en Yvelines, France) to remove any particulate contaminants. […] The intra-ventricular pressure and the heart rate were recorded together with ECG. Coronary flow was measured by sequentially collecting the effluent. […]
# At the end of the perfusion, the heart was washed out from the remaining radiolabelled medium by 10 mL of Krebs-Henseleit solution injected through the canula. […] The radioactivity of the homogenate was evaluated.
# The glycerol uptake was evaluated from the total radioactivity of the homogenate.
# perfused rat heart [4] = experiment: Incorporation of glycerol in glycerolipids (PL and NPL) in perfused rat heart; details: increase in rate
# Procedure: The experiments were performed using the perfusion conditions described in Example 1. At the end of the perfusion, the heart was washed out from the remaining radiolabelled medium by 10 mL of Krebs-Henseleit solution injected through the canula. The hearts were homogenized in 30 mL chloroform/methanol (2/1, v/v) according to FOLCH (1957, aforementioned). The radioactivity of the homogenate was evaluated. A 0.73% NaCl solution was added to the homogenate to cause phase separation. The radioactivity was determined in samples of the aqueous and organic fractions, and the phospholipids (PL) were separated from non-phosphorous lipids (NPL) on silica cartridges (Supelco, Sigma) and the radioactivity of each class was evaluated. The fate of intracellular glycerol was evaluated in these rat hearts by analysing the radioactivity incorporated into phospholipids (PL) and non-phosphorous lipids (NPL), which in the heart represent mainly the triacylglycerol pool.
# perfused rat heart [5] = experiment: 14CO2 production from [14C]-glycerol in perfused rat heart (mitochondrial energy production); details: energy demand raised from 350 to 450 beats/min; whatever the circulating glycerol concentration (0.33 or 3.33 mM)
# Procedure: as §1, with “kPa).” for “kPa). The perfusion fluid consisted of a modified Krebs-Henseleit bicarbonate buffer (mM concentrations: NaCl 118, NaHCO3 25, MgSO4 1.2, KH2PO4 1.2, KCl 4.7, glucose 5.5 and CaCl2 2.0).”
# as §2
# The cardiac capacity to use glycerol as a metabolic substrate in energy production, according to glycerol availability was evaluated using ^14C-radiolabelled glycerol.
# The direct measurement of mitochondrial energy production was made by quantitatively collecting ^14CO2 produced from the perfused hearts. […] The hyamine […] was collected every 10 minutes and the radioactivity evaluated.
# [6] = as a function of the extracellular glycerol concentration
smiles,measurement,setting,value
CCOC(=O)[C@@]1(CCCCCCOc2ccc(Cl)cc2)CO1 [Etomoxir],cardiac hypertrophy,heart; chronic treatment,induced cardiac hypertrophy
same,glucose oxidation,heart; normal and diabetic heart,increase glucose oxidation
same,insulin sensitivity,type 2 diabetic patients,improve insulin sensitivity
"COc1ccc(CN2CCNCC2)c(OC)c1OC [Trimetazidine, reference compound]",cellular glycerol uptake,heart; associated with increased phospholipid synthesis,significant increase
same,β-oxidation,heart,reduces β-oxidation
same,phospholipid synthesis,heart; in vitro and in vivo,increasing the phospholipid synthesis
same,glycerol uptake,[1]; Trimetazidine added,increased
same,phospholipid synthesis,[1]; Trimetazidine added,increased their synthesis only at high glycerol concentrations
same,triacylglycerol synthesis,[1]; Trimetazidine added,no significant effect
OCC(O)CO [glycerol],FA β-oxidation ([3H]2O from palmitate),perfused rat heart [2],reduced
same,glycerol oxidation ([14C]O2),perfused rat heart [2],increased
same,glycerol uptake,"perfused rat heart [3]; high glycerol concentration (3.33 mM), increased energetic demand 350 to 450 beats/min",significant increase
same,glycerol uptake,"perfused rat heart [3]; low glycerol concentration (0.33 mM), increase in rate 350 to 450 beats/min",not significantly modified
same,synthesis of glycerolipids,perfused rat heart [4]; high glycerol concentration (3.33 mM),involved in the synthesis of both membrane phospholipids and storage triacylglycerols
same,synthesis of glycerolipids,perfused rat heart [4]; low glycerol concentration (0.33 mM),does not influence
same,PL concentration,[1]; [6],increased progressively
same,triacylglycerol concentration,[1]; [6],only increased at higher glycerol concentrations
same,glycerol uptake,[1]; extracellular glycerol concentration from 80 μM to 660 μM,increases
same,mitochondrial production of 14CO2 from glycerol,perfused rat heart [5],significantly increased
